Like-named read-outs stand apart in the source and are kept apart here.
Columns and labels:
[1] = system: Yeast Edema of the Rat Paw; assay: Yeast edema and determination of pain threshold in the rat paw; format: in vivo; settings: 3 h
Protocol: test animals are male rats (SIV 50) weighing 100 to 180 g. […] 10 animals belonged to each dosage group.
The volume of the paw is determined according to the method described by Enders and Heidbrink, the pain threshold according to that described by Randall and Selitto (Arch. Int. Pharmacodyn CXI: 409, 1957).
Following initial measurements, […] of a 5% suspension of dried yeast is injected subplantarly into the right paw and the test substances are administered immediately. The blank control group is given Tragacanth mucilage only. After 3 hours the pain threshold and the volume of the paw are determined again.
The mean value of the increase in paw volume of the animals of the blank control after 3 hours is rated 100%, and the mean value of the increase in paw volume of the animals of the substance groups expressed as a percentage thereof. Pain threshold after 3 hours reflects the increase or decrease in percent, compared to the initial value.
In order to be able to calculate the ED50 according to the method by Lichtfield and Wilcoxon (J.P.E.T. 96:99, 1949), those animals in a dose group are considered protected when the paw swelling was at least 40% less than that of the blank control.

Granulation Tissue = assay: Cotton-pellet test (granulation tissue); format: in vivo; settings: rat
Protocol: test animals are male rats (SIV 50) weighing 110 to 200 g. All test animals are kept fasting for 16 to 18 hours prior to the implantation of the pellets; after that food and water were available ad libitum. Each dose level of the chemical tested was administered to 12 animals. The substances were suspended in 1% Tragacanth mucilage and administered intragastrically by means of a stomach tube. The substances to be investigated and the control suspensions are administered once on the operating day following operation, and twice a day on the following 6 days (at intervals of 6 to 8 hours). The type of application and volume of liquid corresponded to that under B.
Under light ether anesthesia 4 sterile cotton pellets were implanted under the skin on the back of the animal. The weight of one pellet was 50 mg ± 0.5 mg. After 7 days treatment, the animals were sacrificed, the pellets removed with the granulation tissue, weighed and then dried in the incubator at +80°C to constant weight. The average dry weight of the granulation tissue of the control group was rated 100%, and deviations of the mean weights of the group treated with the test substance determined as a percentage thereof.
The weight of the animals is measured daily throughout the tests, and the percental increase determined. At the end of some tests, moreover, the suprarenal glands are removed and their weight determined.

in vivo = settings: mouse
[2] = system: Carrageenin Edema of the Rat Paw; assay: Carrageenin edema of the rat paw; format: in vivo
Protocol: test animals used are the same as stated under Example B and up to the initial measurement, the procedure corresponded to that described under this example.
After an initial measurement, the test substances are administered and after 60 minutes a 1% Carrageenin suspension is injected subplantarly (0.1 ml/paw). After 60 and 180 minutes the paw volume is again determined. Here, too, the blank control group was treated with the carrier alone.
The increase in the volume of the paw after 60 minutes is considered as the first phase of the biphase edema and that after 180 minutes, as compared to the 60-minute-value, as the second phase. Moreover, the total increase of the paw edema within 180 minutes, as compared to the initial value, is also determined.
Determination of the influence exerted by the substances upon the development of the paw edema and calculation of the ED50 are done as under Example B.

[3] = system: Kaolin Edema of the Rat Paw; assay: Kaolin edema of the rat paw; format: in vivo; settings: 250.0 mg/kg
Protocol: test animals used are the same as stated under Example B and up to the beginning of the test, the procedure corresponded to that described under this example.
After an initial measurement, a sterile 25% kaolin suspension was injected (0.05 ml/paw) subplantarly. The test substances are administered immediately, and after 60, 120, and 180 minutes the paw volume is again determined.
Evaluation of the tests was performed as stated under Example C, and the results so obtained presented below: […]

[4] = system: Arthritis Induced by the Freund Adjuvant; assay: Adjuvant arthritis; format: in vivo; settings: rat, i.g., 2 × 250.0 mg/kg
Protocol: test animals used are the same as described under Example E; food and water is given ad libitum.
On the first day of the test a 0.8% suspension of Mycobacterium butyrium in paraffin (0.05 or 0.1 ml/paw) is injected subplantarly into the left hind paw of the animals. […] From the 19th to the 22nd day the animals showing a reaction are treated intragastrically with the test substances. The right paw having been marked above the ankle-joint, the volume is determined daily from the 19th to the 22nd or 23rd day, according to the process described under Example B.
The volume of liquid, as well as of the carrier administered, corresponded to that described in the above tests.

male mice (NMRI) = assay: Hot-plate test (analgesia); format: in vivo; settings: mouse, i.g.
Protocol: male mice (NMRI) weighing 18 to 28 g are used as test animals. The animals are placed on a copper plate constantly kept at 55°C, and the time is measured until they lick their forepaws.
Following 3 initial measurements, the test substances are administered intragastrically. Afterwards the measurements are repeated over a period of 2 hours at intervals of 30 minutes. Each dose is administered to 10 animals selected from groups of 15 animals following the initial measurements.
The test substances are administered as a suspension in 1% Tragacanth mucilage, the volume of liquid amounting to 2 ml/100 g of body weight.
For the purpose of statistical evaluation according to Litchfield and Wilcoxon, those animals in which the reaction time has been extended by at least 100% are considered protected.

Granuloma Pouch = assay: Granuloma pouch test; format: in vivo; settings: rat, ig., 2×50.0 mg/kg daily, section K
Protocol: Under light ether anesthesia 25 ml of air are injected under the shaved skin of the back. 0.5 ml of croton oil/animal (0.05%) are injected into the pouch formed by the air, and evenly distributed over the back by turning the animal.
On the third day croton oil (3%, 0.5 ml/animal) is again injected into this pouch.
The average dry weights of the granuloma pouches and the quantities of secretion of the groups subjected to treatment are then compared with those of the control group and the percental deviations calculated.
At the end of some tests the suprarenal glands are removed and the weight of these organs is also determined.
The weight of the animals is measured daily and the changes determined as a percentage.

In the case of `CCOCCCNC(=N)c1sc2ccccc2c1O` [Example 41], the change in vivo at 125 mg/kg ([1]; po, ig., 125 mg/kg, section K (control -9)) is reported as 22%, the response vs control in vivo at 125 mg/kg ([1]; po, ig., 125 mg/kg, section K, read-out: volume (paw, control = 100%)) is reported as 51% and the “granulation tissue % dry weight” value (Granulation Tissue; ig., 2×150 mg/kg daily, section K) is reported as 90%. For the same compound, the “increase in body weight %” value (Granulation Tissue; ig., 2×150 mg/kg daily, section K, control 36) was 29% and the LD50 (in vivo; po) was roughly 1600 mg/kg.

Work on `COC(=N)c1sc2ccccc2c1O` [Example 1, Methyl 3-Hydroxy-Benzo[b]Thiopene-2-Carboximidate] yielded a change in vivo at 75 mg/kg ([1]; po, ig., 75 mg/kg, section K (control -23)) of -10%, a response vs control in vivo at 75 mg/kg ([1]; po, ig., 75 mg/kg, section K (control pain -23), read-out: volume (paw, control = 100%)) of 32% and an LD50 (in vivo; po) greater than 1600 mg/kg.

Compound `N=C(NCCN1CCOCC1)c1sc2ccccc2c1O` [Example 33] has a change in vivo at 225 mg/kg ([1]; sc., 225 mg/kg, section K (control -10)) of 34%, a response vs control in vivo at 225 mg/kg ([1]; sc., 225 mg/kg, section K, read-out: volume (paw, control = 100%)) of 46% and an LD50 (in vivo; sc) of roughly 1000 mg/kg.

For `CCCC1C(=O)N2C(N(C)C)=Nc3ccc(C)cc3N2C1=O` (centres unmarked) [Azapropazone, 3-Dimethylamino-7-methyl-1,2-(n-propylmalonyl)-1,2-dihydro-1,2-benzotriazine-dihydrate], the “Volume (increase in paw volume, blank control = 100%)” value ([1]; i.g., 250.0 mg/kg) was 98%, the “Pain Threshold (change vs initial value)” value ([1]; i.g., 400.0 mg/kg) was -52% and the “Volume (increase in paw volume, blank control = 100%)” value ([1]; i.g., 400.0 mg/kg) was 100%. For the same compound, the “1st Phase (paw edema)” value ([2]; 100.0 mg/kg) was 72%, the “2nd Phase (paw edema)” value ([2]; 100.0 mg/kg) was 50% and the “3 Hrs. (total paw edema)” value ([2]; 100.0 mg/kg) was 63%. The “1st Phase (paw edema)” value ([2]; 400.0 mg/kg) was 79%, the “2nd Phase (paw edema)” value ([2]; 400.0 mg/kg) was 21% and the “3 Hrs. (total paw edema)” value ([2]; 400.0 mg/kg) was 55%. The “60 Minutes (paw edema)” value [3] was 100%, the “120 Minutes (paw edema)” value [3] was 93% and the “180 Minutes (paw edema)” value [3] was 67%. For the same compound, the “Granulation Tissue % (Dry Weight)” value (Granulation Tissue; i.g., 2 × 150 mg/kg daily) was 76%, the “Increase in Body Weight” value (Granulation Tissue; i.g., 2 × 150 mg/kg daily) was “not influenced” and the Swelling [4] was 91%. The “Notes (analgesic activity)” value (male mice (NMRI)) was “ineffective”.

In the case of `N=C(NCCN1CCCC1)c1sc2ccccc2c1O` [Example 34], the response vs control in vivo at 125 mg/kg ([1]; sc., 125 mg/kg, section K, read-out: volume (paw, control = 100%)) is reported as 54%, the “granuloma pouch dry weight %” value (Granuloma Pouch) is reported as 79% and the secretion % (Granuloma Pouch) is reported as 75%. The “increase in body weight %” value (Granuloma Pouch; control 55) was 51% and the LD50 (in vivo; sc) was roughly 600 mg/kg.

Reference: patent publication US3971814A, “Benzo(b)thiophene derivatives” (priority 1972, dated 1976)
